US20100193777A1, “METHOD OF PRODUCING A DESUBSTITUTED COMPOUND, ORGANIC SEMICONDUCTOR FILM AND METHOD OF PRODUCING THE SAME” (FUJIFILM Corporation, priority 2007, published 2010)

Columns and labels:
Format in all cases: physicochemical
[1] = Light resistance test of dye films; settings: absorbance at maximum absorption wavelength, 48 h light resistance test
Experimental: The above-described thin films 1 to 4 were each stored for 24 hours under the conditions of 23° C. and 50% RH. Thereafter, these thin films were each subjected to a light resistance test using a merry-go-round type apparatus for testing of light resistance (Cell Testing Apparatus III, trade name, manufactured by Eagle Engineering Co., Ltd., with a filter WG 320, trade name, manufactured by Schott AG). Absorption spectra of the dye films just before the light resistance test and the dye films after the light resistance test for 48 hours were measured using UV-1600 PC (trade name, manufactured by Shimadzu Corporation). A change of absorbance at the maximum absorption wavelength was read from each absorption spectrum.

[2] = Solubility in a solvent (chloroform or water); settings: for solubility in water after heating: after heated at 250° C.
Experimental: In the first embodiment of the present invention, the term “solvent-soluble (being soluble in a solvent)” means to show a solubility of 0.1% by mass or more, more preferably 0.5% by mass or more, and further preferably 1% by mass or more, with respect to a solvent in interest when the solvent to which a compound in interest is added is heated under reflux and then cooled down to room temperature. Further, the term “solvent-insolubilization (to make a compound insoluble in a solvent)” means to reduce the solubility by one digit figure or more than the solvent-soluble state. Specifically, with respect to a solvent, when the solvent is heated under reflux and then cooled down to room temperature, it is preferable to reduce from the solubility of 0.1% by mass or more (solvent-soluble) to the solubility of 0.01% by mass or less, further preferably from the solubility of 0.5% by mass or more (solvent-soluble) to the solubility of 0.05% by mass or less, and especially preferably from the solubility of 1% by mass or more (solvent-soluble) to the solubility of less than 0.1% by mass. Further, the term “solvent-insoluble (being insoluble in a solvent)” means to show solubility of less than 0.1% by mass, preferably 0.05% by mass or less, and further preferably 0.01% by mass or less, with respect to a solvent in interest when the solvent to which a compound in interest is added is heated under reflux and then cooled down to room temperature.
There is no particular restriction in the kind of solvent when degrees of the above-described “solvent-soluble” and “solvent-insoluble” are defined. Accordingly, both “solvent-soluble” and “solvent-insoluble” may be defined in terms of solvent and temperature each of which is actually used. Alternatively, for example, these properties may be specified as solubility (25° C.) with respect to water (distilled water). However, the solvent used in the first embodiment of the present invention is not limited by the above.

[3] = TG/DTA thermal analysis (rate of decrease in mass on heating)
Experimental: The thermal analysis (TG/DTA measurement) of the thus-produced Exemplified compound (1) was conducted. The TG/DTA measurement was conducted at the rate of temperature increase of 10° C./min in a range of 30° C. to 550° C. under a current of nitrogen gas (flow rate: 200 ml/min) using EXSTAR 6000 (trade name, manufactured by Seiko Instruments Inc.), to determine a rate of decrease in mass. FIG. 1 is a graph showing TG/DTA measurement results of the Exemplified compound (1). Herein, in each of Examples and Comparative Examples described below, the measurement of TG was conducted using the same apparatus and under the same conditions as described above.
In FIG. 1, the uppermost curve indicates the change of mass with respect to temperature (TG.). The bottom curve indicates the heat going in and out with respect to temperature (enthalpy change) (DTA). The middle curve indicates the amount of change of TG (differential value) per time (DTG).

| solubility in a solvent such as chloroform [2] | solubility in water [2] | further results | Compound |
| --- | --- | --- | --- |
|  |  | Residual rate after 48 hours ([1]; dye film after heating): 91%; Residual rate after 48 hours ([1]; dye film before heating): 1.9% | CC(C)(C)OC(=O)N1C(=O)C2=C(c3ccccc3)N(C(=O)OC(C)(C)C)C(=O)C2=C1c1ccccc1 [Compound 1 for comparison] |
| so low that a film was not formed |  |  | [Cu+2].c1ccc2c(c1)-c1nc-2nc2[n-]c(nc3nc(nc4[n-]c(n1)c1ccccc41)-c1ccccc1-3)c1ccccc21 [cupper phthalocyanine] |
| so low that a film was not formed | so low that a film was not formed |  | c1ccc2c(c1)-c1nc-2nc2[nH]c(nc3nc(nc4[nH]c(n1)c1ccccc41)-c1ccccc1-3)c1ccccc21 [metal-free phthalocyanine] |
| so low that a film was not formed | so low that a film was not formed |  | [Zn+2].c1ccc2c(c1)-c1nc-2nc2[n-]c(nc3nc([n-]c4nc(n1)-c1ccccc1-4)-c1ccccc1-3)c1ccccc21 [zinc phthalocyanine] |
|  | soluble | temperature of desubstitution of the substituent ([3]; from TG and MS of heated residue): higher than 400 °C; reduction in weight in TG on heating ([3]; heated up to 400° C., after initial loss of solvent or water): did not cause any reduction in weight | copper phthalocyanine-tetrasulfonic acid tetrasodium salt |
|  | soluble | solubility in water after heating [2]: soluble | metal-free phthalocyanine-tetrasulfonic acid [Exemplified compound (54)] |
|  | soluble | solubility in water after heating [2]: soluble | zinc phthalocyanine-tetrasulfonic acid [Exemplified compound (53)] |
